Reference: PubChem BioAssay AID248 (DTP/NCI, 2004)
Values joined by “and” are separate entries in the source; they are usually repeats but may differ in a detail not shown here. Equal values may be shown once. Toxic doses and inconclusive results are not listed. Cut-off read from the data, not from the text of the source: active = T/C of 150% or more; inactive = T/C below 125%.

Tested on: L1210 leukemia ip in BDF1 mice, survival T/C
Experiment: NCI In Vivo Anticancer Drug Screen. Data for tumor model L1210 Leukemia (intraperitoneal) in B6D2F1 (BDF1) mice
Details: endpoint: mean survival time, higher = longer survival
In short: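 Survival endpoint. Drug-treated group vs vehicle group, expressed as T divided by C. Tumor passaged by transplantation.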

[1] = dose: 50.0 mg/kg/injection, schedule: Q01DX009 (ip), vehicle: saline with Tween-80
[2] = dose: 100.0 mg/kg/injection, schedule: Q01DX009 (ip), vehicle: saline with Tween-80
[3] = dose: 200.0 mg/kg/injection, schedule: Q01DX009 (ip), vehicle: saline with Tween-80
[4] = dose: 400.0 mg/kg/injection, schedule: Q01DX009 (ip), vehicle: saline with Tween-80
[5] = dose: 200.0 mg/kg/injection, schedule: Q04DX003 (ip), vehicle: Klucel (hydroxypropylcellulose) (HPC)
[6] = dose: 400.0 mg/kg/injection, schedule: Q04DX003 (ip), vehicle: Klucel (hydroxypropylcellulose) (HPC)
[7] = dose: 100.0 mg/kg/injection, schedule: Q01DX009 (ip), vehicle: Klucel (hydroxypropylcellulose) (HPC)
[8] = dose: 100.0 mg/kg/injection, schedule: Q04DX003 (ip), vehicle: Klucel (hydroxypropylcellulose) (HPC)
[9] = dose: 100.0 mg/kg/injection, schedule: Q01DX001 (ip), vehicle: carboxymethylcellulose (CMC)
[10] = dose: 200.0 mg/kg/injection, schedule: Q01DX001 (ip), vehicle: carboxymethylcellulose (CMC)
[11] = dose: 400.0 mg/kg/injection, schedule: Q01DX001 (ip), vehicle: carboxymethylcellulose (CMC)

Measured: T/C

CN(/N=C/c1ccccc1)C(=N)N
inactive: dose: 5.0 mg/kg/injection, schedule: Q01DX009 (ip), vehicle: saline 106 % of control | dose: 10.0 mg/kg/injection, schedule: Q01DX001 (ip), vehicle: saline 98 % of control | dose: 10.0 mg/kg/injection, schedule: Q01DX009 (ip), vehicle: saline 93 % of control | dose: 10.0 mg/kg/injection, schedule: Q04DX003 (ip), vehicle: saline 101 % of control | dose: 20.0 mg/kg/injection, schedule: Q01DX001 (ip), vehicle: saline 101 % of control | dose: 20.0 mg/kg/injection, schedule: Q01DX009 (ip), vehicle: saline 104 % of control | dose: 20.0 mg/kg/injection, schedule: Q04DX003 (ip), vehicle: saline 97 % of control | dose: 40.0 mg/kg/injection, schedule: Q01DX001 (ip), vehicle: saline 93 % of control | dose: 40.0 mg/kg/injection, schedule: Q04DX003 (ip), vehicle: saline 103 % of control | dose: 62.5 mg/kg/injection, schedule: Q04DX003 (ip), vehicle: saline 117 % of control | dose: 75.0 mg/kg/injection, schedule: Q01DX001 (ip), vehicle: saline 100 % of control

CC1(C)OC2OC(C(O)CSCc3ccccc3)C(O)C2O1 (configuration not stated)
inactive: [1] 94 % of control | dose: 100.0 mg/kg/injection, schedule: Q01DX001 (ip), vehicle: saline with Tween-80 92 % of control | [2] 93 % of control | dose: 200.0 mg/kg/injection, schedule: Q01DX001 (ip), vehicle: saline with Tween-80 89 % of control | [3] 97 % of control

CC(C)=CCNc1ncnc2c1c(C#N)cn2C1OC(CO)C(O)C1O (configuration not stated)
inactive: dose: 0.78 mg/kg/injection, schedule: Q01DX009 (ip), vehicle: saline 95 % of control | dose: 1.56 mg/kg/injection, schedule: Q01DX005 (ip), vehicle: saline 106 % of control | dose: 1.56 mg/kg/injection, schedule: Q01DX009 (ip), vehicle: saline 95 % of control | dose: 3.12 mg/kg/injection, schedule: Q01DX009 (ip), vehicle: saline 97 % of control

CC(CO)(CO)NC(=O)Nc1ccccc1F
inactive: [2] 113 % of control | [3] 103 % of control | [4] 101 % of control

CN1CN(c2ccccc2)C2(CCN(CCCCCCC#N)CC2)C1=O
inactive: dose: 25.0 mg/kg/injection, schedule: Q04DX003 (ip), vehicle: Klucel (hydroxypropylcellulose) (HPC) 102 % of control | dose: 50.0 mg/kg/injection, schedule: Q04DX003 (ip), vehicle: Klucel (hydroxypropylcellulose) (HPC) 94 % of control | [5] 90 % of control | [6] 97 % of control

COc1cc(Cc2cc(OC)c(O)c(OC)c2)cc(OC)c1O
inactive: [7] 107 % of control | [8] 92 % of control | dose: 200.0 mg/kg/injection, schedule: Q01DX009 (ip), vehicle: Klucel (hydroxypropylcellulose) (HPC) 93 % of control | [5] 97 % of control | dose: 400.0 mg/kg/injection, schedule: Q01DX009 (ip), vehicle: Klucel (hydroxypropylcellulose) (HPC) 101 % of control | [6] 95 % of control

COC1OC2COc3ccccc3OC2C(N=C(N)N[N+](=O)[O-])C1O (configuration not stated)
inactive: dose: 100.0 mg/kg/injection, schedule: Q01DX009 (ip), vehicle: gum acacia 97 % of control | dose: 200.0 mg/kg/injection, schedule: Q01DX009 (ip), vehicle: gum acacia 100 % of control | dose: 400.0 mg/kg/injection, schedule: Q01DX009 (ip), vehicle: gum acacia 95 % of control

CCOC(=O)NC1C2CC3C(C2)C31 (configuration not stated)
inactive: dose: 50.0 mg/kg/injection, schedule: Q01DX001 (ip), vehicle: carboxymethylcellulose (CMC) 107 % of control | [9] 103 % of control | [10] 101 % of control | [11] 109 % of control

CC1CCCC1OC(=O)c1ccc([N+](=O)[O-])cc1 (configuration not stated)
inactive: [9] 104 % of control | [10] 102 % of control | [11] 93 % of control

O=[N+]([O-])c1ccc(/C([O-])=C(\C(=S)Nc2ccccc2Cl)[n+]2ccccc2)cc1
inactive: dose: 100.0 mg/kg/injection, schedule: Q04DX002 (ip), vehicle: saline with Tween-80 96 % of control | dose: 200.0 mg/kg/injection, schedule: Q04DX002 (ip), vehicle: saline with Tween-80 89 % of control | dose: 400.0 mg/kg/injection, schedule: Q04DX002 (ip), vehicle: saline with Tween-80 96 % of control

NS(=O)(=O)c1cccc([N+](=O)[O-])c1
inactive: dose: 20.0 mg/kg/injection, schedule: Q04DX003 (ip), vehicle: Klucel (hydroxypropylcellulose) (HPC) 104 % of control | dose: 25.0 mg/kg/injection, schedule: Q01DX009 (ip), vehicle: Klucel (hydroxypropylcellulose) (HPC) 107 % of control | dose: 40.0 mg/kg/injection, schedule: Q04DX003 (ip), vehicle: Klucel (hydroxypropylcellulose) (HPC) 98 % of control | dose: 50.0 mg/kg/injection, schedule: Q01DX009 (ip), vehicle: Klucel (hydroxypropylcellulose) (HPC) 100 % of control | dose: 80.0 mg/kg/injection, schedule: Q04DX003 (ip), vehicle: Klucel (hydroxypropylcellulose) (HPC) 107 % of control | [7] 96 % of control | [8] 96 % of control

O=[N+]([O-])/C=C\c1cc2c3c(c1)CCCN3CCC2
inactive: dose: 3.13 mg/kg/injection, schedule: Q01DX001 (ip), vehicle: saline with Tween-80 95 % of control | dose: 3.13 mg/kg/injection, schedule: Q04DX003 (ip), vehicle: saline with Tween-80 98 % of control | dose: 6.25 mg/kg/injection, schedule: Q01DX001 (ip), vehicle: saline with Tween-80 94 % of control | dose: 6.25 mg/kg/injection, schedule: Q04DX003 (ip), vehicle: saline with Tween-80 93 % of control | dose: 12.5 mg/kg/injection, schedule: Q01DX001 (ip), vehicle: saline with Tween-80 95 % of control and 93 % of control | dose: 12.5 mg/kg/injection, schedule: Q01DX009 (ip), vehicle: saline with Tween-80 100 % of control | dose: 12.5 mg/kg/injection, schedule: Q04DX003 (ip), vehicle: saline with Tween-80 97 % of control | dose: 25.0 mg/kg/injection, schedule: Q01DX001 (ip), vehicle: saline with Tween-80 93 % of control | dose: 25.0 mg/kg/injection, schedule: Q01DX009 (ip), vehicle: saline with Tween-80 102 % of control | dose: 50.0 mg/kg/injection, schedule: Q01DX001 (ip), vehicle: saline with Tween-80 97 % of control | [1] 97 % of control

COc1ccc(OC)c2c1CCCC2=O
inactive: dose: 50.0 mg/kg/injection, schedule: Q01DX001 (ip), vehicle: saline 96 % of control | dose: 100.0 mg/kg/injection, schedule: Q01DX001 (ip), vehicle: saline 99 % of control | dose: 200.0 mg/kg/injection, schedule: Q01DX001 (ip), vehicle: saline 91 % of control | dose: 400.0 mg/kg/injection, schedule: Q01DX001 (ip), vehicle: saline 96 % of control

CCOC(=O)C(C)(C(=O)OCC)c1ccccc1
inactive: [2] 97 % of control | dose: 100.0 mg/kg/injection, schedule: Q04DX003 (ip), vehicle: saline 97 % of control | [3] 95 % of control | dose: 200.0 mg/kg/injection, schedule: Q04DX003 (ip), vehicle: saline 97 % of control | [4] 95 % of control | dose: 400.0 mg/kg/injection, schedule: Q04DX003 (ip), vehicle: saline 98 % of control

O=C(/C=C/c1ccc([N+](=O)[O-])s1)c1cccc([N+](=O)[O-])c1
inactive: dose: 100.0 mg/kg/injection, schedule: Q04DX002 (ip), vehicle: Klucel (hydroxypropylcellulose) (HPC) 91 % of control | dose: 200.0 mg/kg/injection, schedule: Q04DX002 (ip), vehicle: Klucel (hydroxypropylcellulose) (HPC) 100 % of control | dose: 400.0 mg/kg/injection, schedule: Q04DX002 (ip), vehicle: Klucel (hydroxypropylcellulose) (HPC) 100 % of control
